Test results taken from US9493411B2 (AbbVie Inc., priority 2013, dated 2016).

Legend:
[1] = test system: breast cancer cell line MX-1; assay: MX-1 cell line proliferation assay; type: cell-based; settings: Homo sapiens, MX1, 72 h, MX-1 cells, 3-day proliferation assay, Cell Titer Glo; read-out: Cellular proliferation: EC50
Procedure: The impact of compounds of the Examples on cancer cell proliferation was determined using the breast cancer cell line MX-1 (ATCC) in a 3-day proliferation assay and the data are reported in Table 1. MX-1 cells were maintained in RPMI 1640 medium (Sigma) supplemented with 10% FBS at 37° C. and an atmosphere of 5% CO2. For compound testing, MX-1 cells were plated in 96-well black bottom plates at a density of 5000 cells/well in 90 μL of culture media and incubated at 37° overnight to allow cell adhesion and spreading. Compound dilution series were prepared in DMSO via a 3-fold serial dilution from 3 mM to 0.1 μM. The DMSO dilution series were then diluted 1:100 in phosphate buffered saline, and 10 μL of the resulted solution were added to the appropriate wells of the MX-1 cell plate. The final compound concentrations in the wells were 3, 1, 0.3, 0.1, 0.03, 0.01, 0.003, 0.001, 0.0003 and 0.0001 μM.
Luminescence readings from the Cell Titer Glo assay were normalized to the DMSO treated cells and analyzed using the GraphPad Prism software with sigmoidal curve fitting to obtain EC50s. The minimum significant ratio (MSR) was determined to evaluate assay reproducibility (Eastwood et al., (2006) J Biomol Screen, 11: 253-261).

[2] = target: T1, BRD4 (BDII_E352-M457) (Homo sapiens, UniProt O60885); assay: TR-FRET bromodomain binding assay, BRD4 second bromodomain; settings: His-tagged BD2, Alexa647-labeled probe 30 nM; Ki calculated from IC50
T1 construct: made in house
Procedure, shortened: (§1)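 His-tagged bromodomain (8 nM) was incubated 1 h at room temperature with Eu-anti-His antibody (1 nM), Alexa647-labeled BET-inhibitor probe (100 nM for BDI, 30 nM for BDII) and compound (50 μM-0.85 nM, 2% DMSO) in pH 6.0 phosphate buffer. TR-FRET ratio read; IC50 from 4-parameter fit converted to Ki using probe Kd.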

[3] = target: T2, BRD4 (BDI_K57-E168) (Homo sapiens, UniProt O60885); assay: TR-FRET bromodomain binding assay, BRD4 first bromodomain; settings: His-tagged BD1, Alexa647-labeled probe 100 nM; Ki calculated from IC50
T2 construct: BD1: amino acids K57-E168; made in house
Procedure, shortened: as §1

EC50 [1] [µM]	Ki [2] [µM]	Ki [3] [µM]	Compound
> 10	5.6	0.313	Cc1[nH]c(-c2ccccc2NC[C@H]2CC[C@H](N)CC2)cc1C(N)=O [Example 49, 5-(2-{[(trans-4-aminocyclohexyl)methyl]amino}phenyl)-2-methyl-1H-pyrrole-3-carboxamide]
> 10	7.83	0.498	Cc1[nH]c(-c2ccccc2NCCC2CCNCC2)cc1C(N)=O [Example 47, 2-methyl-5-(2-{[2-(piperidin-4-yl)ethyl]amino}phenyl)-1H-pyrrole-3-carboxamide]
4.32	0.605	0.355	Cc1[nH]c(-c2ccccc2Cc2ccccc2)cc1C(N)=O [Example 148, 5-(2-benzylphenyl)-2-methyl-1H-pyrrole-3-carboxamide]
4.95	16.3	0.426	Cc1[nH]c(-c2ccccc2NC[C@H]2CC[C@H](NC(=O)OC(C)(C)C)CC2)cc1C(N)=O [Example 46, tert-butyl [trans-4-({[2-(4-carbamoyl-5-methyl-1H-pyrrol-2-yl)phenyl]amino}methyl)cyclohexyl]carbamate]
1.61	0.326	0.0749	Cc1[nH]c(-c2ccccc2-n2cnc3cc(O)ccc32)cc1C(N)=O [Example 146, 5-[2-(5-hydroxy-1H-benzimidazol-1-yl)phenyl]-2-methyl-1H-pyrrole-3-carboxamide]
2.25	2.24	0.281	Cc1[nH]c(-c2ccccc2Oc2ccc(Cl)cc2F)cc1C(N)=O [Example 129, 5-[2-(4-chloro-2-fluorophenoxy)phenyl]-2-methyl-1H-pyrrole-3-carboxamide]
0.4	0.318	0.0273	Cc1[nH]c(-c2ccccc2Oc2cccc3ncccc23)cc1C(N)=O [Example 128, 2-methyl-5-[2-(quinolin-5-yloxy)phenyl]-1H-pyrrole-3-carboxamide]
4.17	3.19	0.659	Cc1[nH]c(-c2ccccc2NCc2cccc(N)c2)cc1C(N)=O [Example 53, 5-{2-[(3-aminobenzyl)amino]phenyl}-2-methyl-1H-pyrrole-3-carboxamide]
1.3	1.48	0.384	CCCCNc1ccccc1-c1cc(C(N)=O)c(C)[nH]1 [Example 27, 5-[2-(butylamino)phenyl]-2-methyl-1H-pyrrole-3-carboxamide]
28.6	2.1	1.08	Cc1[nH]c(-c2cccc(-c3ccc(C(=O)NCCN(C)C)cc3)c2)cc1C(N)=O [Example 159, 5-(4′-{[2-(dimethylamino)ethyl]carbamoyl}biphenyl-3-yl)-2-methyl-1H-pyrrole-3-carboxamide]
13.4	2.98	4.5	Cc1[nH]c(-c2ccccc2NC(=O)Cc2ccccc2)cc1C(N)=O [Example 76, 2-methyl-5-{2-[(phenylacetyl)amino]phenyl}-1H-pyrrole-3-carboxamide]
2	1.04	0.233	Cc1[nH]c(-c2ccccc2Oc2cccc(C#N)c2)cc1C(N)=O [Example 127, 5-[2-(3-cyanophenoxy)phenyl]-2-methyl-1H-pyrrole-3-carboxamide]
0.19	3.88	0.585	Cc1[nH]c(-c2ccccc2NCc2ccc(O)cc2)cc1C(N)=O [Example 54, 5-{2-[(4-hydroxybenzyl)amino]phenyl}-2-methyl-1H-pyrrole-3-carboxamide]
6.3	5.18	2.5	Cc1ccc(-c2cc(C(N)=O)c(C)[nH]2)c(C)c1 [Example 90, 5-(2,4-dimethylphenyl)-2-methyl-1H-pyrrole-3-carboxamide]
2.42	1.6	0.123	Cc1[nH]c(-c2ccccc2Oc2ccc(F)cc2)cc1C(N)=O [Example 141, 5-[2-(4-fluorophenoxy)phenyl]-2-methyl-1H-pyrrole-3-carboxamide]
> 10	1.86	0.355	Cc1[nH]c(-c2ccccc2Oc2ccc(-n3ccnc3)cc2)cc1C(N)=O [Example 135, 5-{2-[4-(1H-imidazol-1-yl)phenoxy]phenyl}-2-methyl-1H-pyrrole-3-carboxamide]

EC50 [1] [µM]	Ki [2] [µM]	Ki [3] [µM]	Compound
2.32	3.88	0.884	COc1cc(-c2cc(C(N)=O)c(C)[nH]2)cc(OC)c1OC [Example 149, 2-methyl-5-(3,4,5-trimethoxyphenyl)-1H-pyrrole-3-carboxamide]
> 10	14.5	0.446	Cc1[nH]c(-c2ccccc2NCC2CCNC2)cc1C(N)=O (stereo not drawn) [Example 42, 2-methyl-5-{2-[(pyrrolidin-3-ylmethyl)amino]phenyl}-1H-pyrrole-3-carboxamide]
> 3	0.653	0.237	Cc1[nH]c(-c2ccccc2NS(=O)(=O)Cc2ccccc2)cc1C(N)=O [Example 83, 5-{2-[(benzylsulfonyl)amino]phenyl}-2-methyl-1H-pyrrole-3-carboxamide]
> 10	10.2	0.776	Cc1[nH]c(-c2ccccc2Oc2ccc(Cc3ccccc3)cc2)cc1C(N)=O [Example 121, 5-[2-(4-benzylphenoxy)phenyl]-2-methyl-1H-pyrrole-3-carboxamide]
0.167	0.416	0.0781	Cc1[nH]c(-c2ccccc2NC2C3CC4CC(C3)CC2C4)cc1C(N)=O (stereo not drawn) [Example 72, 2-methyl-5-{2-[tricyclo[3.3.1.1^3,7]dec-2-ylamino]phenyl}-1H-pyrrole-3-carboxamide]
> 10	1.17	0.493	Cc1cccc(Oc2ccccc2-c2cc(C(N)=O)c(C)[nH]2)c1 [Example 134, 2-methyl-5-[2-(3-methylphenoxy)phenyl]-1H-pyrrole-3-carboxamide]
> 3	0.757	0.106	Cc1[nH]c(-c2cc(S(N)(=O)=O)ccc2Oc2ccc(F)cc2F)cc1C(N)=O [Example 168, 5-[2-(2,4-difluorophenoxy)-5-sulfamoylphenyl]-2-methyl-1H-pyrrole-3-carboxamide]
0.998	1.1	0.249	Cc1[nH]c(-c2ccccc2Oc2ccc(N)cc2)cc1C(N)=O [Example 119, 5-[2-(4-aminophenoxy)phenyl]-2-methyl-1H-pyrrole-3-carboxamide]
1.6	0.192	0.18	Cc1[nH]c(-c2ccccc2Oc2cccc3cnccc23)cc1C(N)=O [Example 125, 5-[2-(isoquinolin-5-yloxy)phenyl]-2-methyl-1H-pyrrole-3-carboxamide]
7.75	2.14	1.5	Cc1[nH]c(-c2cccc(-c3cccc(CN4CCN(C)CC4)c3)c2)cc1C(N)=O [Example 158, 2-methyl-5-{3′-[(4-methylpiperazin-1-yl)methyl]biphenyl-3-yl}-1H-pyrrole-3-carboxamide]
0.52	1.24	0.197	Cc1[nH]c(-c2ccccc2NC2CCCCC2)cc1C(N)=O [Example 62, 5-[2-(cyclohexylamino)phenyl]-2-methyl-1H-pyrrole-3-carboxamide]
> 3	13.2	1.85	Cc1[nH]c(-c2ccccc2NS(=O)(=O)Cc2ccc(Cl)cc2)cc1C(N)=O [Example 85, 5-(2-{[(4-chlorobenzyl)sulfonyl]amino}phenyl)-2-methyl-1H-pyrrole-3-carboxamide]
> 10	11	0.469	Cc1[nH]c(-c2ccccc2NCC2CCNCC2)cc1C(N)=O [Example 43, 2-methyl-5-{2-[(piperidin-4-ylmethyl)amino]phenyl}-1H-pyrrole-3-carboxamide]
1.13	2.59	0.151	Cc1[nH]c(-c2ccccc2NC2CCSCC2)cc1C(N)=O [Example 68, 2-methyl-5-[2-(tetrahydro-2H-thiopyran-4-ylamino)phenyl]-1H-pyrrole-3-carboxamide]
8.56	1.19	0.728	Cc1[nH]c(-c2ccccc2Oc2ccc3ccccc3c2)cc1C(N)=O [Example 139, 2-methyl-5-[2-(naphthalen-2-yloxy)phenyl]-1H-pyrrole-3-carboxamide]
